This is an account of results in ChEMBL document CHEMBL5678818, “Discovery of potent SOS1 inhibitors that block RAS activation via disruption of the RAS-SOS1 interaction” (Proc Natl Acad Sci U S A, 2019).

Active and inactive are the calls of the source. The rule behind the calls is not given here.

The test system of assay [1] is SOS1-KRAS (Homo sapiens), Q07889+P01116 [G12C]. Put plainly: Inhibition of N-terminal GST-tagged recombinant human KRAS G12C mutant (1 to 169 residues) expressed in Escherichia coli/N-terminal His10-tagged wild-type recombinant human SOS1 catalytic domain (564 to 1049 residues) expressed in Escherichia coli protein-protein interaction assessed as reduction in FRET signal by HTRF analysis.

For assay [2], the species on record is Homo sapiens. In words: Inhibition of N-terminal GST-tagged recombinant human SOS1 N879V mutant (564 to 1049 residues) expressed in Escherichia coli assessed as reduction in KRAS G12C mutant activation at 10 uM by HTRF analysis relative to control. A general note: TR-FRET usually uses a lanthanide donor and a delayed reading to cut background.
The species entered for assay [3] is Homo sapiens. Put plainly: Inhibition of ACVR1 (unknown origin) assessed as residual activity at 100 nM by KINOMEscan analysis relative to control.
The target of assay [4] is RAC-alpha serine/threonine-protein kinase (Homo sapiens) (UniProt P31749). Put plainly: Inhibition of AKT1 (unknown origin) assessed as residual activity at 100 nM by KINOMEscan analysis relative to control.
Assay [5] deals with BMP-2-inducible protein kinase (Homo sapiens) (UniProt Q9NSY1). Put plainly: Inhibition of BIKE (unknown origin) assessed as residual activity at 100 nM by KINOMEscan analysis relative to control.
Assay [6] has as its system Epidermal growth factor receptor (Homo sapiens), P00533 [G719C]. In words: Inhibition of EGFR G719C mutant (unknown origin) assessed as residual activity at 100 nM by KINOMEscan analysis relative to control.
The target in assay [7] is T1, Tyrosine-protein kinase ITK/TSK (Homo sapiens) (UniProt Q08881).
T1 sequence (whole entry): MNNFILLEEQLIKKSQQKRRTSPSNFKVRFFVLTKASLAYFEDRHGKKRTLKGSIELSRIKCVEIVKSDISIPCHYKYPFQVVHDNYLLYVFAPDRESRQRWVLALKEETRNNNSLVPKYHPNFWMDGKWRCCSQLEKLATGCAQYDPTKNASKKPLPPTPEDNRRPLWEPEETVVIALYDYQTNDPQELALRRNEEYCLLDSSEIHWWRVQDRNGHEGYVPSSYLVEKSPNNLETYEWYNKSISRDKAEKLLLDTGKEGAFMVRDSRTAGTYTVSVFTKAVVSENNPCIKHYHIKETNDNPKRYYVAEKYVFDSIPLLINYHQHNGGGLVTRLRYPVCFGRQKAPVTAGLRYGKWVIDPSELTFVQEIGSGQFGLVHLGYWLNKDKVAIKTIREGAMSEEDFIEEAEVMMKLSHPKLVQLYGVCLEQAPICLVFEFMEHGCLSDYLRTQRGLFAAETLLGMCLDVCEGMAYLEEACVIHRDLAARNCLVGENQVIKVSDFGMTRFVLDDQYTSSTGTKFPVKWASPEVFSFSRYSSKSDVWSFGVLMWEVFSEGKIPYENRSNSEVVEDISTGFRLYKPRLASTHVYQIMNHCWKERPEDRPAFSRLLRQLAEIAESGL
Put plainly: Inhibition of ITK (unknown origin) assessed as residual activity at 100 nM by KINOMEscan analysis relative to control.

Assay [8] concerns the target Mitogen-activated protein kinase kinase kinase kinase 4 (Homo sapiens) (UniProt O95819). In words: Inhibition of MAP4K4 (unknown origin) assessed as residual activity at 100 nM by KINOMEscan analysis relative to control.
The target in assay [9] is Calcium-dependent protein kinase 1 (Plasmodium falciparum) (UniProt P62344). Put plainly: Inhibition of Plasmodium falciparum CDPK1 assessed as residual activity at 100 nM by KINOMEscan analysis relative to control.
Assay [10] addresses T2, Serine/threonine-protein kinase D2 (Homo sapiens) (UniProt Q9BZL6).
T2 sequence (whole entry): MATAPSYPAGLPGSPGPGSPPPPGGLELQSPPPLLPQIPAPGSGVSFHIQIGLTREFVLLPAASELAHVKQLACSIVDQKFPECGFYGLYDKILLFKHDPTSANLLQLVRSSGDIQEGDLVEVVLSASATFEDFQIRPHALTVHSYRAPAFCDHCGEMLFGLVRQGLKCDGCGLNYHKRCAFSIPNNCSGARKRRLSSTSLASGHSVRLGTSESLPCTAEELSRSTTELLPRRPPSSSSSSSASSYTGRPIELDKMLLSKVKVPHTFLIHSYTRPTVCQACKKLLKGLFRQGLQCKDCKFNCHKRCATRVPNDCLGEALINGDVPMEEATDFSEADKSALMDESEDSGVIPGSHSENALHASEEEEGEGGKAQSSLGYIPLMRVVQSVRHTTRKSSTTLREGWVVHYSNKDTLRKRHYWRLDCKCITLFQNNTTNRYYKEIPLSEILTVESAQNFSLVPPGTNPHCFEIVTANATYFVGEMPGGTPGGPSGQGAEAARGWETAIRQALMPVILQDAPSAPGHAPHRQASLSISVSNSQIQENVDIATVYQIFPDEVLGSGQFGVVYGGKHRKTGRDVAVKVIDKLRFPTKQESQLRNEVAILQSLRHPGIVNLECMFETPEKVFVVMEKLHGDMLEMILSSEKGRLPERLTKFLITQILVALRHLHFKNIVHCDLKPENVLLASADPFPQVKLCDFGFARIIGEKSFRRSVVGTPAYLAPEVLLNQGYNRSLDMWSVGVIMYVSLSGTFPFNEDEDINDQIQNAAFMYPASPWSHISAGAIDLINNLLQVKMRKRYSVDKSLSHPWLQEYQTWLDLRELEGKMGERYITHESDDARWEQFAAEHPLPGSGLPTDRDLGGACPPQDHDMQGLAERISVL
In words: Inhibition of PRKD2 (unknown origin) assessed as residual activity at 100 nM by KINOMEscan analysis relative to control.

The target in assay [11] is Rho-associated protein kinase 2 (Homo sapiens) (UniProt O75116). Put plainly: Inhibition of ROCK2 (unknown origin) assessed as residual activity at 100 nM by KINOMEscan analysis relative to control.
For assay [12], the target named is Wee1-like protein kinase (Homo sapiens) (UniProt P30291). Put plainly: Inhibition of WEE1 (unknown origin) assessed as residual activity at 100 nM by KINOMEscan analysis relative to control.
Sequence of Wee1-like protein kinase (Homo sapiens) (P30291 whole entry, looked up): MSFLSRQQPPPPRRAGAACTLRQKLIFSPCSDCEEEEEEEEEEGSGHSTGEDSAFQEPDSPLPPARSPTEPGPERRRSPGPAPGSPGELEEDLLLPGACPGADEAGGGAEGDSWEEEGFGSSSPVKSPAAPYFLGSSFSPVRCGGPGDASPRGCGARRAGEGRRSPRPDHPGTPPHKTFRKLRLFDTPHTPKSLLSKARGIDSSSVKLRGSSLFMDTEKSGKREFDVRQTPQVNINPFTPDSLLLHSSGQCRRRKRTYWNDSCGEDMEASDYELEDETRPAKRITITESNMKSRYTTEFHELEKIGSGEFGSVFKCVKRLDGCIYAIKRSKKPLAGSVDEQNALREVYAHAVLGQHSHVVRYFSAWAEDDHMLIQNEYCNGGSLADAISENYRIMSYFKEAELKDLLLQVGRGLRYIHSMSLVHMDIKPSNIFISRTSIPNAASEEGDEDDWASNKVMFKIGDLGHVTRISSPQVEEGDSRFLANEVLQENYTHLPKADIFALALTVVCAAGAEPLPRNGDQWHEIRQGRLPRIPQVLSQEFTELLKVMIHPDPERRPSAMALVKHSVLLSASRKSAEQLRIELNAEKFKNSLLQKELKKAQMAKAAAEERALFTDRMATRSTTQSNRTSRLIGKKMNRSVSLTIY

Sequence of BMP-2-inducible protein kinase (Homo sapiens) (Q9NSY1 whole entry, looked up): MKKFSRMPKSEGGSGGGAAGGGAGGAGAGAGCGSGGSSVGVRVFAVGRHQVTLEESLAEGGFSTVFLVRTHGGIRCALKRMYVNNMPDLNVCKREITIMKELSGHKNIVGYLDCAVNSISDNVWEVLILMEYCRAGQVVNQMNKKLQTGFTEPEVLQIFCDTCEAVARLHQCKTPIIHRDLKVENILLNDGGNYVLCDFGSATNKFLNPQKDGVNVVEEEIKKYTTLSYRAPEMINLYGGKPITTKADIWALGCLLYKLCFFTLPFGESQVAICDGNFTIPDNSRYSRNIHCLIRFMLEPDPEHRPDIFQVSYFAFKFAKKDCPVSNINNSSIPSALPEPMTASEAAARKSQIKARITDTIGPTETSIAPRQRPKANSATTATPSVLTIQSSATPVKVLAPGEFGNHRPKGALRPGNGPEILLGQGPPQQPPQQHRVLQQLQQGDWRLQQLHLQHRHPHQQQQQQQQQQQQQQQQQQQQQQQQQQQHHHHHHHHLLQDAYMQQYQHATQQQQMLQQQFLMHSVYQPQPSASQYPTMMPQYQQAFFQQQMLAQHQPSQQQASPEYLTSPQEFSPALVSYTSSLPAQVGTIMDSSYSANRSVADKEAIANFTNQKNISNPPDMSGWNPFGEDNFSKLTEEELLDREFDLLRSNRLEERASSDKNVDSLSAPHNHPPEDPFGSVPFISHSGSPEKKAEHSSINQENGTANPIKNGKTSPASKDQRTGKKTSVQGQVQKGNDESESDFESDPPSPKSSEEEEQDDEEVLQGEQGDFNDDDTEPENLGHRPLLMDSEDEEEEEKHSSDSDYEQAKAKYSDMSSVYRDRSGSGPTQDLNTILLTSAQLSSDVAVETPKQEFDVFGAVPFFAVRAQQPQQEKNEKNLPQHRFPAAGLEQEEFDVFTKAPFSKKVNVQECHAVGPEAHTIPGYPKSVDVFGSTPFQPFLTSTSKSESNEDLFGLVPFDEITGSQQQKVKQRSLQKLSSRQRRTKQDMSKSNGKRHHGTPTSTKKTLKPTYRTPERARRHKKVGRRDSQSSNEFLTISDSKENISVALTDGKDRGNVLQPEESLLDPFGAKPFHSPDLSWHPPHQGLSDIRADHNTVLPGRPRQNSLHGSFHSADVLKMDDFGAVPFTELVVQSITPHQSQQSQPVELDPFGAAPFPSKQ
Sequence of Mitogen-activated protein kinase kinase kinase kinase 4 (Homo sapiens) (O95819 2-1239 limits assumed): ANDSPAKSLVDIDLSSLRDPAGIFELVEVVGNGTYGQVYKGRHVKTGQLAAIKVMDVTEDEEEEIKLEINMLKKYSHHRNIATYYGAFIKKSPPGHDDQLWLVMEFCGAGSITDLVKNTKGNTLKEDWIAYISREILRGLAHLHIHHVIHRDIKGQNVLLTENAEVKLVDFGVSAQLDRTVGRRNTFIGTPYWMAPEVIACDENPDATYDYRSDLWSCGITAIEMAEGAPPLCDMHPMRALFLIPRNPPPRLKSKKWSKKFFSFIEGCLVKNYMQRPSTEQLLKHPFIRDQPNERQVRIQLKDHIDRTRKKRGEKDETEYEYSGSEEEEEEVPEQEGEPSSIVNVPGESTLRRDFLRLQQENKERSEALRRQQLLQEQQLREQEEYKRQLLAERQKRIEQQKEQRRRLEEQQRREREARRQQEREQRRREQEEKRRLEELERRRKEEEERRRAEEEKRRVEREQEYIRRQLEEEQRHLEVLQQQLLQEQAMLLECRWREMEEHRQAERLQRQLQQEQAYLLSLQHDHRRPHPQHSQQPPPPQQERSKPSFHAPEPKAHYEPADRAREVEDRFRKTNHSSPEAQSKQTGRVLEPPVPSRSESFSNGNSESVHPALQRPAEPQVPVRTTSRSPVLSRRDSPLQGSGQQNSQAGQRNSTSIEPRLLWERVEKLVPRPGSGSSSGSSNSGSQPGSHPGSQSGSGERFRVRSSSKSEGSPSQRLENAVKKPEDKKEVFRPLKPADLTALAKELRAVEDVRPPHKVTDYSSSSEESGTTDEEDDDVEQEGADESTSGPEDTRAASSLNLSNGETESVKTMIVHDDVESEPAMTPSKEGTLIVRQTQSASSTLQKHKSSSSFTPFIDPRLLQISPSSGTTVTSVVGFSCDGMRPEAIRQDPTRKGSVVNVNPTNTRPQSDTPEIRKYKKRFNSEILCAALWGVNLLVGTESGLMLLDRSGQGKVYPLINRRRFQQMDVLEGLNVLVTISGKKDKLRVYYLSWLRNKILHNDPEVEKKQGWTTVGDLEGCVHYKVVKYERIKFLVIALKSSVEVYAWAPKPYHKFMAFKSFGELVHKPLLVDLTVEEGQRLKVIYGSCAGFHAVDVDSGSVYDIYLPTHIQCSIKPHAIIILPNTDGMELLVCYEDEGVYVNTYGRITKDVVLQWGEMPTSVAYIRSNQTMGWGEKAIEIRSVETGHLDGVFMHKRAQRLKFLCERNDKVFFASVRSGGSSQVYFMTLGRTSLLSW
Sequence of Calcium-dependent protein kinase 1 (Plasmodium falciparum) (P62344 2-524 limits assumed): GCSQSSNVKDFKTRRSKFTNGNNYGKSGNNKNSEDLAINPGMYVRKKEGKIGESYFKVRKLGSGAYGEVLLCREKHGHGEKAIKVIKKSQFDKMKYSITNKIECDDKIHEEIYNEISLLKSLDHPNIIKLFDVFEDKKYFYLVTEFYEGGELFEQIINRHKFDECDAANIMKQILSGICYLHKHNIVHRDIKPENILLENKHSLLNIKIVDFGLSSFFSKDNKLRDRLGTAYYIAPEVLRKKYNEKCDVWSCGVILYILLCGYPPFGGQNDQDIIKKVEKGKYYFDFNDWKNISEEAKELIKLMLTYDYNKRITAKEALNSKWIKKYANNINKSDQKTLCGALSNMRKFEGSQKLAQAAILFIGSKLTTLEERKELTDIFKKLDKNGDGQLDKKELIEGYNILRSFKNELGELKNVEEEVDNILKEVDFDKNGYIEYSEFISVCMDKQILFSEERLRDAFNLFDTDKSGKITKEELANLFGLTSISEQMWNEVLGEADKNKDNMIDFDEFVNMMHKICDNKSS
Sequence of RAC-alpha serine/threonine-protein kinase (Homo sapiens) (P31749 whole entry): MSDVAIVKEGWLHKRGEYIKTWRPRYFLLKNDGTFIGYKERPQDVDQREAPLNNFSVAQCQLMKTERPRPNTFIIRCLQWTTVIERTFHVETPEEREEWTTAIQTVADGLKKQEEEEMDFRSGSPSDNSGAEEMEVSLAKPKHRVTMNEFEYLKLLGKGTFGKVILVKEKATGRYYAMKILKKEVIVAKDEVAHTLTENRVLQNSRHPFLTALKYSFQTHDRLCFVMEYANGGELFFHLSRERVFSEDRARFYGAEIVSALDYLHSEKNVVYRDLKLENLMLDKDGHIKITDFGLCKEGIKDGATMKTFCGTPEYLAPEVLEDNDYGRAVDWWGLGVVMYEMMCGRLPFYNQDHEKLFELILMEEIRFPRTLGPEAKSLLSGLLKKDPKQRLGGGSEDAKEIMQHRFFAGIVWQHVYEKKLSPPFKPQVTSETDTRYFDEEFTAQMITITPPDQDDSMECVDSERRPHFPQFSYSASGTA

For the compound `COc1cc2ncnc(N[C@H](C)c3cccc4ccccc34)c2cc1OC`, in assay [1], the result was Active. For the same compound, in assay [2], the inhibition was 51%. Besides, the Activity was 83% in [3]; 79% in assay [4]; 93% in assay [5]; 89% in assay [6]; 73% in assay [7]; 65% in assay [8]. Further, the Activity in assay [9] was found to be 84%; in assay [10] it was 80%; in [11], 87%; in assay [12], 88%.

What is called inhibition is the drop in the measured response relative to a control, in per cent.
